Data as given in US20240390340A1 (INCYTE CORPORATION, priority 2023, published 2024).

Legend:
KRAS = KRAS inhibition, assay not specified (at least one assay described herein); conditions: Peak 1 versus Peak 2 of prep. LCMS; assay not stated
KRAS G12D = KRAS G12D (Homo sapiens, UniProt P01116, G12D); assay: GDP-GTP exchange assay (bodipy-GDP/GppNHp, SOS1), KRAS G12D; assay type: biochemical; conditions: Table H, column G12D; for compounds isolated as several atropisomers/diastereoisomers the value for the most potent isomer is quoted; read-out: KRAS G12D exchange assay IC50
KRAS G12V = KRAS G12V (Homo sapiens, UniProt P01116, G12V); assay: GDP-GTP exchange assay (bodipy-GDP/GppNHp, SOS1), KRAS G12V; assay type: biochemical; conditions: Table H, column G12V; for compounds isolated as several atropisomers/diastereoisomers the value for the most potent isomer is quoted; read-out: KRAS G12V exchange assay IC50
Caco-2 cells = assay: Caco2 assay (Papp A-B); assay type: in vitro ADME; conditions: test compound 50 μM, 120 min, 37° C.
Outline: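 Caco-2 monolayers grown 22–25 days on Transwells (TEER 300 Ω·cm^2) were dosed apically with 50 μM compound in HBSS; basolateral receiver held HBSS with 4% BSA. Incubation 120 min at 37° C, 5% CO2; donor and receiver samples quantified by LCMS and Papp A-B calculated from receiver-side cumulative flux slope.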

Sequence of KRAS G12D (P01116 1-188 isoform P01116-2 G12D): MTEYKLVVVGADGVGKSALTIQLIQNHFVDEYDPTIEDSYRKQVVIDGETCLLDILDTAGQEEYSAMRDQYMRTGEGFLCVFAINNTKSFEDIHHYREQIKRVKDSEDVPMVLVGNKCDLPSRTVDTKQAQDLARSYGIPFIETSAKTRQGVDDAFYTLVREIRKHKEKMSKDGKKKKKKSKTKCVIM
Sequence of KRAS G12V (P01116 1-188 isoform P01116-2 G12V): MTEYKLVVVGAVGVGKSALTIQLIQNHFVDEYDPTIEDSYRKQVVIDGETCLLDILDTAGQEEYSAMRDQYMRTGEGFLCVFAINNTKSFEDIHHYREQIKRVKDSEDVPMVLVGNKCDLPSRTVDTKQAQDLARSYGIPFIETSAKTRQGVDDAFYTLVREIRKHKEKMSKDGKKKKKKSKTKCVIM

Row | Compound | potency of the separated diastereoisomer (atropisomer) in words (KRAS) | other results
1 | Cc1nc2c(F)c(-c3cccc(Cl)c3Cl)c(CCC#N)cc2c2c1cc([C@H]1C[C@](C)(OCc3ccccc3)CN1C(=O)C1CC1)n2[C@H]1[C@H]2CN[C@@H]1C2 (single isomer, unassigned) [Example 81, Diastereomer 1 (Peak 1)] | potent | 
2 | C[C@@H]1[C@@H](Oc2cc(F)ccn2)C[C@H](c2cc3c([C@@H](C)O)nc4c(F)c(-c5cccc(Cl)c5Cl)c(CCC#N)cc4c3n2[C@H]2[C@H]3CN[C@@H]2C3)N1C(=O)C1CC1 (single isomer, unassigned) [Example 63, Diastereomer 1 (Peak 1)] | potent | 
3 | COc1cc(O[C@H]2C[C@H](c3cc4c(C(C)O)nc5c(F)c(-c6cccc(Cl)c6Cl)c(CCC#N)cc5c4n3[C@H]3[C@H]4CN[C@@H]3C4)N(C(=O)C3CC3)C2)ccn1 (single isomer, unassigned) [Example 2, Diastereomer 1 (Peak 1)] | potent | 
4 | COc1ncccc1O[C@H]1C[C@H](c2cc3c(C)nc4c(F)c(-c5cccc(Cl)c5Cl)c(CCC#N)cc4c3n2[C@H]2[C@H]3CN[C@@H]2C3)N(C(=O)C2CC2)C1 (single isomer, unassigned) [Example 1, Diastereomer 1 (Peak 1)] | potent | 
5 | Cc1cc(F)cc(O[C@H]2C[C@H](c3cc4c([C@@H](C)O)nc5c(F)c(-c6cccc(Cl)c6Cl)c(CCC#N)cc5c4n3[C@H]3[C@H]4CN[C@@H]3C4)N(C(=O)C3CC3)C2)n1 (single isomer, unassigned) [Example 62, Diastereomer 1 (Peak 1)] | potent | 
6 | [2H]C([2H])([2H])O[C@H]1CC[C@@H]1O[C@H]1C[C@H](c2cc3c(C)nc4c(F)c(-c5cccc(Cl)c5Cl)c(CCC#N)cc4c3n2[C@H]2[C@H]3CN[C@@H]2C3)N(C(=O)C2CC2)C1 (single isomer, unassigned) [Example 80, Diastereomer 1 (Peak 1)] | potent | 
7 | C[C@@H](O)c1nc2c(F)c(-c3cccc(Cl)c3Cl)c(CCC#N)cc2c2c1cc([C@H]1[C@H](O)[C@H](Oc3ccccn3)CN1C(=O)C1CC1)n2[C@H]1[C@H]2CN[C@@H]1C2 (single isomer, unassigned) | potent | 
8 | C[C@@H](O)c1nc2c(F)c(-c3cccc(Cl)c3Cl)c(CCC#N)cc2c2c1cc([C@H]1[C@@H](F)[C@H](Oc3ccccn3)CN1C(=O)C1CC1)n2[C@H]1[C@H]2CN[C@@H]1C2 (single isomer, unassigned) | potent | 
9 | CC(O)c1nc2c(F)c(-c3cccc(Cl)c3Cl)c(CCC#N)cc2c2c1cc([C@H]1C[C@H](OCc3ccc(F)cc3C#N)CN1C(=O)C1(C)CC1)n2[C@H]1[C@H]2CN[C@@H]1C2 (single isomer, unassigned) [Example 35, Diastereomer 1 (Peak 1)] | potent | 
10 | COc1ccc(O[C@H]2C[C@H](c3cc4c([C@@H](C)O)nc5c(F)c(-c6cccc(Cl)c6Cl)c(CCC#N)cc5c4n3[C@H]3[C@H]4CN[C@@H]3C4)N(C(=O)C3CC3)C2)cn1 (single isomer, unassigned) [Example 76, Diastereomer 1 (Peak 1)] | potent | 
11 | COC[C@@H]1[C@@H](Oc2cc(OC)ncc2F)C[C@H](c2cc3c([C@@H](C)O)nc4c(F)c(-c5cccc(Cl)c5Cl)c(CCC#N)cc4c3n2[C@H]2[C@H]3CN[C@@H]2C3)N1C(=O)C1CC1 (single isomer, unassigned) | potent | 
12 | COc1cc(O[C@H]2C[C@H](c3cc4c([C@@H](C)O)nc5c(F)c(-c6cccc(Cl)c6Cl)c(CCC#N)cc5c4n3[C@H]3[C@H]4CN[C@@H]3C4)N(C(=O)C3(C)CC3)[C@@H]2C)c(F)cn1 (single isomer, unassigned) [Example 52, Diastereomer 1 (Peak 1)] | potent | 
13 | CC[C@@H]1[C@@H](Oc2cc(OC)ncc2F)C[C@H](c2cc3c([C@@H](C)O)nc4c(F)c(-c5cccc(Cl)c5Cl)c(CCC#N)cc4c3n2[C@H]2[C@H]3CN[C@@H]2C3)N1C(=O)C1CC1 (single isomer, unassigned) [Example 82, Diastereomer 1 (Peak 1)] | potent | 
14 | C[C@@H](O)c1nc2c(F)c(-c3cccc(Cl)c3Cl)c(CCC#N)cc2c2c1cc([C@H]1C[C@H](Oc3nccs3)CN1C(=O)C1CC1)n2[C@H]1[C@H]2CN[C@@H]1C2 (single isomer, unassigned) [Example 54, Diastereomer 1 (Peak 1)] | potent | 
15 | COc1cc(O[C@H]2C[C@H](c3cc4c([C@@H](C)O)nc5c(F)c(-c6cccc(Cl)c6Cl)c(CCC#N)cc5c4n3[C@H]3[C@H]4CN[C@@H]3C4)N(C(=O)C3CC3)[C@@H]2C)c(F)cn1 (single isomer, unassigned) [Example 51, Diastereomer 1 (Peak 1)] | potent | 
16 | C[C@@H]1[C@@H](Oc2c(F)ccnc2Cl)C[C@H](c2cc3c([C@@H](C)O)nc4c(F)c(-c5cccc(Cl)c5Cl)c(CCC#N)cc4c3n2[C@H]2[C@H]3CN[C@@H]2C3)N1C(=O)C1CC1 (single isomer, unassigned) [Example 64, Diastereomer 1 (Peak 1)] | potent | 
17 | Cc1nc2c(F)c(-c3cccc(Cl)c3Cl)c(CCC#N)cc2c2c1cc([C@H]1C[C@H](n3cc(C(C)(C)C)nn3)CN1C(=O)C1CC1)n2[C@H]1[C@H]2CN[C@@H]1C2 (single isomer, unassigned) [Example 4, Diastereomer 1 (Peak 1)] | potent | 
18 | COc1nccc(O[C@H]2C[C@H](c3cc4c([C@@H](C)O)nc5c(F)c(-c6cccc(Cl)c6Cl)c(CCC#N)cc5c4n3[C@H]3[C@H]4CN[C@@H]3C4)N(C(=O)C3CC3)C2)c1F (single isomer, unassigned) [Example 53, Diastereomer 1 (Peak 1)] | potent | 
19 | C[C@@H](O)c1nc2c(F)c(-c3cccc(Cl)c3Cl)c(CCC#N)cc2c2c1cc([C@H]1C[C@H](Oc3cc(C4CC4)on3)CN1C(=O)C1CC1)n2[C@H]1[C@H]2CN[C@@H]1C2 (single isomer, unassigned) [Example 77, Diastereomer 1 (Peak 1)] | potent | 
20 | COc1cc(O[C@H]2C[C@H](c3cc4c([C@@H](C)O)nc5c(F)c(-c6cccc(Cl)c6Cl)c(CCC#N)cc5c4n3[C@H]3[C@H]4CN[C@@H]3C4)N(C(=O)C3(C)CC3)[C@@H]2C)c(F)cn1 [Example 52, 3-(1-((1R,4R,5S)-2-Azabicyclo[2.1.1]hexan-5-yl)-7-(2,3-dichlorophenyl)-6-fluoro-2-((2R,4S,5R)-4-((5-fluoro-2-methoxypyridin-4-yl)oxy)-5-methyl-1-(1-methylcyclopropane-1-carbonyl)pyrrolidin-2-yl)-4-((R)-1-hydroxyethyl)-1H-pyrrolo[3,2-c]quinolin-8-yl)propanenitrile] |  | IC50 (KRAS G12D): ≤ 100 nM; IC50 (KRAS G12V): ≤ 100 nM; Caco-2 (Caco-2 cells): + (a Caco-2 value of ≤0.5)
21 | CN(C)C(=O)c1ccc(-c2nc3c(F)c(-c4cccc(Cl)c4Cl)c(CCC#N)cc3c3c2cc([C@H]2C[C@H](OCc4c(F)cccc4F)CN2C(=O)C2CC2)n3[C@H]2[C@H]3CN[C@@H]2C3)cn1 [Example 26] |  | IC50 (KRAS G12D): ≤ 100 nM; IC50 (KRAS G12V): ≤ 100 nM; Caco-2 (Caco-2 cells): + (a Caco-2 value of ≤0.5)
22 | Cc1nc2c(F)c(-c3cccc(Cl)c3Cl)c(CCC#N)cc2c2c1cc([C@H]1C[C@H](OC(F)(F)c3ccccc3)CN1C(=O)C1CC1)n2[C@H]1[C@H]2CN[C@@H]1C2 (single isomer, unassigned) [Example 79, Diastereomer 1 (Peak 1)] | potent | 
23 | Cc1nc2c(F)c(-c3cccc(Cl)c3Cl)c(CCC#N)cc2c2c1cc([C@H]1C[C@H](OC3(C)CCC3)CN1C(=O)C1CC1)n2[C@H]1[C@H]2CN[C@@H]1C2 (single isomer, unassigned) [Example 78, Diastereomer 1 (Peak 1)] | potent | 
24 | Cc1nc2c(F)c(-c3cccc(Cl)c3Cl)c(CCC#N)cc2c2c1cc([C@H]1C[C@H](OCc3ccsn3)CN1C(=O)C1CC1)n2[C@H]1[C@H]2CN[C@@H]1C2 [Example 14] |  | IC50 (KRAS G12D): ≤ 100 nM; IC50 (KRAS G12V): ≤ 100 nM; Caco-2 (Caco-2 cells): + (a Caco-2 value of ≤0.5)
25 | C[C@@H](O)c1nc2c(F)c(-c3cccc(Cl)c3Cl)c(CCC#N)cc2c2c1cc([C@H]1C[C@H](Oc3nccs3)CN1C(=O)C1CC1)n2[C@H]1[C@H]2CN[C@@H]1C2 [Example 54, 3-(1-((1R,4R,5S)-2-Azabicyclo[2.1.1]hexan-5-yl)-2-((2R,4S)-1-(cyclopropanecarbonyl)-4-(thiazol-2-yloxy)pyrrolidin-2-yl)-7-(2,3-dichlorophenyl)-6-fluoro-4-((R)-1-hydroxyethyl)-1H-pyrrolo[3,2-c]quinolin-8-yl)propanenitrile] |  | IC50 (KRAS G12D): ≤ 100 nM; IC50 (KRAS G12V): ≤ 100 nM; Caco-2 (Caco-2 cells): + (a Caco-2 value of ≤0.5)
